Laboratory results reported in ChEMBL document CHEMBL1146119, “Amino functionalized novel cholic acid derivatives induce HIV-1 replication and syncytia formation in T cells” (J Med Chem, 2006).
Calls of active or inactive are those of the source. The rule behind the calls is not given here.

These compounds were tested on Human immunodeficiency virus 1 (assay: Induction of HIV1 NL4-3 virus replication in CEM-GFP cells).
Format: functional, organism-based
COC(=O)CC[C@@H](C)[C@H]1CC[C@H]2[C@@H]3[C@H](OC(C)=O)C[C@@H]4C[C@H](OC(C)=O)CC[C@]4(C)[C@H]3C[C@H](O)[C@]12C was tested, and the Activity was “inactive”. In the case of COC(=O)CC[C@@H](C)[C@H]1CC[C@H]2[C@H]3[C@H]([C@@H](N)[C@@H](O)[C@]12C)[C@@]1(C)CC[C@@H](OC(C)=O)C[C@H]1C[C@H]3OC(C)=O, the Activity is reported as “Active”. With COC(=O)CC[C@@H](C)[C@H]1CC[C@H]2[C@H]3[C@H]([C@H](N=[N+]=[N-])C(=O)[C@]12C)[C@@]1(C)CC[C@@H](OC(C)=O)C[C@H]1C[C@H]3OC(C)=O the Activity was “Active”. With COC(=O)CC[C@@H](C)[C@H]1CC[C@H]2[C@H]3C(=C(N)C(=O)[C@]12C)[C@@]1(C)CC[C@@H](OC(C)=O)C[C@H]1C[C@H]3OC(C)=O the Activity was “Active”. In the case of COC(=O)CC[C@@H](C)[C@H]1CC[C@H]2[C@H]3[C@H]([C@@H](N=[N+]=[N-])C(=O)[C@]12C)[C@@]1(C)CC[C@@H](OC(C)=O)C[C@H]1C[C@H]3OC(C)=O, the Activity is reported as “Active”. With COC(=O)CC[C@@H](C)[C@H]1CC[C@H]2[C@H]3[C@H]([C@H](N)C(=O)[C@]12C)[C@@]1(C)CC[C@@H](OC(C)=O)C[C@H]1C[C@H]3OC(C)=O the Activity was “Active”. For COC(=O)CC[C@@H](C)[C@H]1CC[C@H]2[C@H]3[C@H]([C@H](N)[C@H](O)[C@]12C)[C@@]1(C)CC[C@@H](OC(C)=O)C[C@H]1C[C@H]3OC(C)=O, the Activity was “Active”. For C[C@H](CCC(=O)O)[C@H]1CC[C@H]2[C@@H]3[C@H](O)C[C@@H]4C[C@H](O)CC[C@]4(C)[C@H]3C[C@H](O)[C@]12C, the Activity was “inactive”.
